The text below walks through data of patent publication US8003660B2, “Modulators of muscarinic receptors” (Vertex Pharmaceuticals Incorporated, priority 2006, dated 2011).

Molecules are shown by their SMILES.

Holding throughout (type): cell-based
One experiment deals with T1, M2 muscarinic receptor (Homo sapiens, UniProt P08172).
T1 construct: expressed in transfected cells; host or cells: CHO (M2-CHO)
T1 sequence (P08172 1-466): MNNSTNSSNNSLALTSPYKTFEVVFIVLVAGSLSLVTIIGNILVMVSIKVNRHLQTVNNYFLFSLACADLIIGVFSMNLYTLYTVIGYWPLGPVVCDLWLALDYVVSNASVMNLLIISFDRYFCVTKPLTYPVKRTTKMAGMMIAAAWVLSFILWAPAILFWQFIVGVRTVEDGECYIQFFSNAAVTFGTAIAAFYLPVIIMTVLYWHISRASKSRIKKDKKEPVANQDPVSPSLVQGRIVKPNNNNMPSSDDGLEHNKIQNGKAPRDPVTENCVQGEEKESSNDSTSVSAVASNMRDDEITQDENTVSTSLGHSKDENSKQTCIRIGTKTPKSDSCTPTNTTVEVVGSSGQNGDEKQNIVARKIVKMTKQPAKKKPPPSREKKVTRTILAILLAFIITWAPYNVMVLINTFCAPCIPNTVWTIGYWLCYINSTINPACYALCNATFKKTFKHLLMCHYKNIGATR
The experiment in a line: Functional mobilization of intracellular calcium (FLIPR) in CHO cells expressing M2. The settings on record: for M2 Activity: CHO cells expressing M2, FLIPR calcium assay; for Emax: CHO, 100% efficacy = maximum response obtained with the Carbachol control. An outline of the steps: (§1)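 Recombinant CHO cells loaded with Fluo-3 AM or Calcium 3 dye in pH 7.4 buffer containing 1 mM probenecid, with 0.5% final DMSO. For agonism, compound is added directly. For inhibition, it is preincubated 15 min, or co-applied, before carbachol at EC80. FLIPR fluorescence (ex 488, em 540 nm) is recorded for 60 s.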

The target of a further experiment is T2, M3 muscarinic receptor (Homo sapiens, UniProt P20309).
T2 construct: expressed in transfected cells; host or cells: CHO (M3-CHO)
Put plainly: Functional mobilization of intracellular calcium (FLIPR) in CHO cells expressing M3. Conditions: for M3 Activity: CHO cells expressing M3, FLIPR calcium assay; for Emax: CHO, 100% efficacy = maximum response obtained with the Carbachol control. The essentials: as §1
Background: Calcium flux is commonly read through the fluorescence of an indicator in the cells.

Another experiment addresses T3, M4 muscarinic receptor (Homo sapiens, UniProt P08173).
T3 construct: expressed in transfected cells; host or cells: CHO (M4-CHO)
T3 sequence (P08173 1-479): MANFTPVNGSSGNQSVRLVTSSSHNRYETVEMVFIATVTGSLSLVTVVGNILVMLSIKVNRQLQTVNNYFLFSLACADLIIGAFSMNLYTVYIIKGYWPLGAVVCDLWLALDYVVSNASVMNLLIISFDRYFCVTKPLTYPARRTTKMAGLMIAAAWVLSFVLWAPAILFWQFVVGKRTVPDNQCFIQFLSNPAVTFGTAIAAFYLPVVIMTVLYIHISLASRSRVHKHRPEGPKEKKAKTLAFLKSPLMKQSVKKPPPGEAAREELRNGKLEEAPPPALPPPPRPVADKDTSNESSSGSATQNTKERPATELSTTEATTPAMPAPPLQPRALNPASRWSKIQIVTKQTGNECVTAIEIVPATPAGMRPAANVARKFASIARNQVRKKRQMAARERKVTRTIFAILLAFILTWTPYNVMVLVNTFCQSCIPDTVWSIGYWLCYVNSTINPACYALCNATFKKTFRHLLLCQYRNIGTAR
The experiment in a line: Functional mobilization of intracellular calcium (FLIPR) in CHO cells expressing M4. The settings on record: for M4 Activity: CHO cells expressing M4, FLIPR calcium assay; for Emax: CHO, 100% efficacy = maximum response obtained with the Carbachol control. The essentials: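 Calcium flux is read on FLIPR over 60 sec at 488/540 nm in muscarinic-receptor CHO lines. Antagonist mode adds carbachol at EC80 after 15 min compound preincubation or with simultaneous co-application. Agonist mode adds compound alone. Cells carry Fluo-3 or Calcium 3 dye in probenecid-containing pH 7.4 buffer, 0.5% DMSO final.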

Another experiment addresses T4, M1 muscarinic receptor (Homo sapiens, UniProt P11229).
T4 construct: expressed in transfected cells; host or cells: CHO (M1-CHO)
T4 sequence (P11229 1-460): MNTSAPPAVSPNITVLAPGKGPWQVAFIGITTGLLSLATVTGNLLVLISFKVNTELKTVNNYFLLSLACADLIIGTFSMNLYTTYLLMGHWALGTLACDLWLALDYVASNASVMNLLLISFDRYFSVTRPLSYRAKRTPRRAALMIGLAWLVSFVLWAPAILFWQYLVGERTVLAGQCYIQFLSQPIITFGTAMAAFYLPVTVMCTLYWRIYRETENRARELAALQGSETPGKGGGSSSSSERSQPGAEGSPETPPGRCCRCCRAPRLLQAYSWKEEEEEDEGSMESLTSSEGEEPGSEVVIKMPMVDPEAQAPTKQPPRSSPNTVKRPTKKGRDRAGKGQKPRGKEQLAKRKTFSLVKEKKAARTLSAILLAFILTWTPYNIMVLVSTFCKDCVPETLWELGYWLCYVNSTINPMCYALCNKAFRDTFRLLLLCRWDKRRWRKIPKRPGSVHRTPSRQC
The experiment in a line: Functional mobilization of intracellular calcium (FLIPR) in CHO cells expressing M1. The settings on record: for M1 Activity: CHO cells expressing M1, FLIPR calcium assay; for Emax: CHO, 100% efficacy = maximum response obtained with the Carbachol control. The essentials:
as §1

T2 sequence (P20309 whole entry): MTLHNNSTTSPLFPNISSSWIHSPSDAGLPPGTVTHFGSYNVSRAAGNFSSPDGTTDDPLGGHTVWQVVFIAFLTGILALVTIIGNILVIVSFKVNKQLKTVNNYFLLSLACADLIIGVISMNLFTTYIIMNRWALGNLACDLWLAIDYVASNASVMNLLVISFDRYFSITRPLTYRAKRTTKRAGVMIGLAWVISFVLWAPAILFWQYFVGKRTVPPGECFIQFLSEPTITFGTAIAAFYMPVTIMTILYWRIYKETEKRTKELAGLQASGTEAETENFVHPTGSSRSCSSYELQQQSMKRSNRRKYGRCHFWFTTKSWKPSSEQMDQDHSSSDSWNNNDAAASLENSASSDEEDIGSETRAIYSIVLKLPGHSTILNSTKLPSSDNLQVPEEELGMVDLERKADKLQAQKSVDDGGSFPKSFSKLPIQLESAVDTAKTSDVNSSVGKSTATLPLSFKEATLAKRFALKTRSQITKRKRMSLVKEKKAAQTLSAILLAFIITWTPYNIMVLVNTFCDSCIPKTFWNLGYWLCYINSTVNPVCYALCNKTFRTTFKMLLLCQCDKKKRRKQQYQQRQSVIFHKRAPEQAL

What is called Emax is the greatest response seen or fitted, relative to the assay's reference. In the case of `CCN(C(=O)CCNC(C)=O)[C@H]1CCC2(CCN(CCC(C)(C)C)CC2)c2ccccc21` [compound 187], at M2 muscarinic receptor, the “M2 Activity” value is “+ (activity was measured to be greater than 5.0 μM)” and the Emax is < 25%. Moreover, on M3 muscarinic receptor, the “M3 Activity” value is recorded as “+ (activity was measured to be greater than 5.0 μM)” and the Emax was < 25%. In addition, at M4 muscarinic receptor, the “M4 Activity” value is on record as “+++ (activity was measured to be less than 2.0 μM)” and the Emax fell in the range of 25 to 100%. For the same compound, on M1 muscarinic receptor, the “M1 Activity” value was “+++ (activity was measured to be less than 2.0 μM)” and the Emax fell in the range of 25 to 100%.
In the case of `CC(C)(C)CCN1CCC2(CC[C@@H](NC(=O)C3CCOCC3)c3ccccc32)CC1` [compound 188], at M2 muscarinic receptor, the “M2 Activity” value is listed as “+ (activity was measured to be greater than 5.0 μM)” and the Emax was < 25%. Also, on M3 muscarinic receptor, the “M3 Activity” value is recorded as “+ (activity was measured to be greater than 5.0 μM)” and the Emax is < 25%. On M4 muscarinic receptor, the “M4 Activity” value was “+++ (activity was measured to be less than 2.0 μM)” and the Emax was 25 to 100%. Further, on M1 muscarinic receptor, the “M1 Activity” value was “+ (activity was measured to be greater than 5.0 μM)” and the Emax was < 25%.
For `CC(=O)N[C@@H]1CCC2(CCN(CCC(C)(C)C)CC2)c2cc(F)ccc21` [compound 189], at M2 muscarinic receptor, the “M2 Activity” value was “+++ (activity was measured to be less than 2.0 μM)” and the Emax was < 25%. For the same compound, at M3 muscarinic receptor, the “M3 Activity” value is “+ (activity was measured to be greater than 5.0 μM)” and the Emax was < 25%. In addition, at M4 muscarinic receptor, the “M4 Activity” value is “+++ (activity was measured to be less than 2.0 μM)” and the Emax is 25 to 100%. Further, at M1 muscarinic receptor, the “M1 Activity” value is listed as “+++ (activity was measured to be less than 2.0 μM)” and the Emax was in the range of 25 to 100%.
Regarding `CC(=O)N1CCC(C(=O)N[C@H]2CCC3(CCN(CCC(C)(C)C)CC3)c3ccccc32)CC1` [compound 191], at M2 muscarinic receptor, the “M2 Activity” value is given as “+ (activity was measured to be greater than 5.0 μM)” and the Emax was < 25%. For the same compound, at M3 muscarinic receptor, the “M3 Activity” value is given as “+ (activity was measured to be greater than 5.0 μM)” and the Emax was < 25%. On M4 muscarinic receptor, the “M4 Activity” value is “+++ (activity was measured to be less than 2.0 μM)” and the Emax is 25 to 100%. On M1 muscarinic receptor, the “M1 Activity” value was “+++ (activity was measured to be less than 2.0 μM)” and the Emax lay in the range of 25 to 100%.
For `CC(C)(C)CCN1CCC2(CC[C@@H](NC(=O)[C@H]3CCC(=O)N3)c3ccc(F)cc32)CC1` [compound 192], on M2 muscarinic receptor, the “M2 Activity” value was “+ (activity was measured to be greater than 5.0 μM)” and the Emax is < 25%. For the same compound, at M3 muscarinic receptor, the “M3 Activity” value is “+ (activity was measured to be greater than 5.0 μM)” and the Emax was < 25%. Further, on M4 muscarinic receptor, the “M4 Activity” value was “+++ (activity was measured to be less than 2.0 μM)” and the Emax lay within 25 to 100%. Further, on M1 muscarinic receptor, the “M1 Activity” value was “+ (activity was measured to be greater than 5.0 μM)” and the Emax is < 25%.
In the case of `Cn1nccc1C(=O)N[C@H]1CCC2(CCN(CCC(C)(C)C)CC2)c2ccccc21` [compound 193], on M2 muscarinic receptor, the “M2 Activity” value is recorded as “+ (activity was measured to be greater than 5.0 μM)” and the Emax was < 25%. On M3 muscarinic receptor, the “M3 Activity” value was “+ (activity was measured to be greater than 5.0 μM)” and the Emax is < 25%. In addition, at M4 muscarinic receptor, the “M4 Activity” value was “+++ (activity was measured to be less than 2.0 μM)” and the Emax fell in the range of 25 to 100%. Besides, at M1 muscarinic receptor, the “M1 Activity” value is reported as “+++ (activity was measured to be less than 2.0 μM)” and the Emax fell in the range of 25 to 100%.
As for `CC(=O)N1CCC[C@H]1C(=O)N[C@H]1CCC2(CCN(CCC(C)(C)C)CC2)c2ccccc21` [compound 194], at M2 muscarinic receptor, the “M2 Activity” value is “+ (activity was measured to be greater than 5.0 μM)” and the Emax was < 25%. Besides, on M3 muscarinic receptor, the “M3 Activity” value is “+ (activity was measured to be greater than 5.0 μM)” and the Emax was < 25%. For the same compound, on M4 muscarinic receptor, the “M4 Activity” value is reported as “+++ (activity was measured to be less than 2.0 μM)” and the Emax is 25 to 100%. Moreover, on M1 muscarinic receptor, the “M1 Activity” value was “+++ (activity was measured to be less than 2.0 μM)” and the Emax lay in the range of 25 to 100%.
With `CC(C)(C)CCN1CCC2(CC[C@H](NC(=O)Cc3cccnc3)c3ccccc32)CC1` [compound 195], at M2 muscarinic receptor, the “M2 Activity” value is “+++ (activity was measured to be less than 2.0 μM)” and the Emax lay within 25 to 100%. In addition, on M3 muscarinic receptor, the “M3 Activity” value is “+ (activity was measured to be greater than 5.0 μM)” and the Emax is < 25%. At M4 muscarinic receptor, the “M4 Activity” value is reported as “+++ (activity was measured to be less than 2.0 μM)” and the Emax lay within 25 to 100%. Besides, at M1 muscarinic receptor, the “M1 Activity” value was “+++ (activity was measured to be less than 2.0 μM)” and the Emax fell in the range of 25 to 100%.
Take `CCOCC(=O)N[C@H]1CCC2(CCN(CCC(C)(C)C)CC2)c2cc(F)ccc21` [compound 196]: on M2 muscarinic receptor, the “M2 Activity” value is “+++ (activity was measured to be less than 2.0 μM)” and the Emax is 25 to 100%. Also, on M3 muscarinic receptor, the “M3 Activity” value is “+ (activity was measured to be greater than 5.0 μM)” and the Emax was < 25%. On M4 muscarinic receptor, the “M4 Activity” value is given as “+++ (activity was measured to be less than 2.0 μM)” and the Emax lay in the range of 25 to 100%. Further, on M1 muscarinic receptor, the “M1 Activity” value was “+++ (activity was measured to be less than 2.0 μM)” and the Emax was 25 to 100%.
For the compound `CC(C)(C)CCN1CCC2(CC[C@H](NC(=O)CCCN3CCCC3=O)c3ccccc32)CC1` [compound 197], at M2 muscarinic receptor, the “M2 Activity” value is given as “+++ (activity was measured to be less than 2.0 μM)” and the Emax fell in the range of 25 to 100%. Also, at M3 muscarinic receptor, the “M3 Activity” value is “+ (activity was measured to be greater than 5.0 μM)” and the Emax was < 25%. Besides, at M4 muscarinic receptor, the “M4 Activity” value is reported as “+++ (activity was measured to be less than 2.0 μM)” and the Emax lay in the range of 25 to 100%. Further, on M1 muscarinic receptor, the “M1 Activity” value is recorded as “+++ (activity was measured to be less than 2.0 μM)” and the Emax is 25 to 100%.
For `CCN(C(=O)Cc1ccccn1)[C@H]1CCC2(CCN(CCC(C)(C)C)CC2)c2ccccc21` [compound 198], at M2 muscarinic receptor, the “M2 Activity” value is on record as “++ (activity was measured to be from 2.0 μM to 5.0 μM)” and the Emax was < 25%. Besides, on M3 muscarinic receptor, the “M3 Activity” value is “+ (activity was measured to be greater than 5.0 μM)” and the Emax is < 25%. For the same compound, at M4 muscarinic receptor, the “M4 Activity” value is “+++ (activity was measured to be less than 2.0 μM)” and the Emax lay within 25 to 100%. Further, on M1 muscarinic receptor, the “M1 Activity” value is “+++ (activity was measured to be less than 2.0 μM)” and the Emax fell in the range of 25 to 100%.
Regarding `CCOC(=O)N(C)[C@H]1CCC2(CCN(CCC(C)(C)C)CC2)c2ccccc21` [compound 199], at M2 muscarinic receptor, the “M2 Activity” value is recorded as “+ (activity was measured to be greater than 5.0 μM)” and the Emax was < 25%. Moreover, on M3 muscarinic receptor, the “M3 Activity” value is recorded as “+ (activity was measured to be greater than 5.0 μM)” and the Emax was < 25%. Besides, at M4 muscarinic receptor, the “M4 Activity” value was “+++ (activity was measured to be less than 2.0 μM)” and the Emax lay within 25 to 100%. Also, at M1 muscarinic receptor, the “M1 Activity” value was “++ (activity was measured to be from 2.0 μM to 5.0 μM)” and the Emax is < 25%.
